Assay results as given in patent US7282496B2, “Allenic aryl sulfonamide hydroxamic acids as matrix metalloproteinase and TACE inhibitors” (Wyeth Holdings Corporation, priority 2001, dated 2007).

How the values were obtained:
Type in all cases: biochemical
MMP-9 = MMP-9 (Homo sapiens, UniProt P14780); assay: MMP-9 inhibition, thiopeptide or fluorescent peptide substrate test procedure; conditions: in vitro enzyme inhibition
Description: (§1) Test Procedures for Measuring MMP-1, MMP-9, and MMP-13 Inhibition
(§2) These standard pharmacological test procedures are based on the cleavage of a thiopeptide substrates such as Ac-Pro-Leu-Gly(2-mercapto-4-methyl-pentanoyl)-Leu-Gly-OEt by the matrix metalloproteinases MMP-1, MMP-13 (collagenases) or MMP-9 (gelatinase), which results in the release of a substrate product that reacts calorimetrically with DTNB (5,5′-dithiobis(2-nitro-benzoic acid)). The enzyme activity is measured by the rate of the color increase. The thiopeptide substrate is made up fresh as a 20 mM stock in 100% DMSO and the DTNB is dissolved in 100% DMSO as a 100 mM stock and stored in the dark at room temperature. Both the substrate and DTNB are diluted together to 1 mM with substrate buffer (50 mM HEPES pH 7.5, 5 mM CaCl2) before use. The stock of enzyme is diluted with buffer (50 mM HEPES, pH 7.5, 5 mM CaCl2, 0.02% Brij) to the desired final concentration. The buffer, enzyme, vehicle or inhibitor, and DTNB/substrate are added in this order to a 96 well plate (total reaction volume of 200 μl) and the increase in color is monitored spectrophotometrically for 5 minutes at 405 nm on a plate reader and the increase in color over time is plotted as a linear line.
(§3) Alternatively, a fluorescent peptide substrate is used. In this test procedure, the peptide substrate contains a fluorescent group and a quenching group. Upon cleavage of the substrate by an MMP, the fluorescence that is generated is quantitated on the fluorescence plate reader. The assay is run in HCBC assay buffer (50 mM HEPES, pH 7.0, 5 mM Ca^+2, 0.02% Brij, 0.5% Cysteine), with human recombinant MMP-1, MMP-9, or MMP-13. The substrate is dissolved in methanol and stored frozen in 1 mM aliquots. For the assay, substrate and enzymes are diluted in HCBC buffer to the desired concentrations. Compounds are added to the 96 well plate containing enzyme and the reaction is started by the addition of substrate. The reaction is read (excitation 340 nm, emission 444 nm) for 10 min. and the increase in fluorescence over time is plotted as a linear line.
(§4) For either the thiopeptide or fluorescent peptide test procedures, the slope of the line is calculated and represents the reaction rate. The linearity of the reaction rate is confirmed (r^2>0.85). The mean (x±sem) of the control rate is calculated and compared for statistical significance (p<0.05) with drug-treated rates using Dunnett's multiple comparison test. Dose-response relationships can be generated using multiple doses of drug and IC50 values with 95% Cl are estimated using linear regression.

MMP-13 = MMP-13 (Homo sapiens, UniProt P45452); assay: MMP-13 inhibition, thiopeptide or fluorescent peptide substrate test procedure; conditions: in vitro enzyme inhibition
Description: as §1, §2, §3, §4

MMP-1 = biological target: T1, MMP-1 (Homo sapiens, UniProt P03956); assay: MMP-1 inhibition, thiopeptide or fluorescent peptide substrate test procedure; conditions: for IC50: in vitro enzyme inhibition
T1 sequence (P03956 100-469): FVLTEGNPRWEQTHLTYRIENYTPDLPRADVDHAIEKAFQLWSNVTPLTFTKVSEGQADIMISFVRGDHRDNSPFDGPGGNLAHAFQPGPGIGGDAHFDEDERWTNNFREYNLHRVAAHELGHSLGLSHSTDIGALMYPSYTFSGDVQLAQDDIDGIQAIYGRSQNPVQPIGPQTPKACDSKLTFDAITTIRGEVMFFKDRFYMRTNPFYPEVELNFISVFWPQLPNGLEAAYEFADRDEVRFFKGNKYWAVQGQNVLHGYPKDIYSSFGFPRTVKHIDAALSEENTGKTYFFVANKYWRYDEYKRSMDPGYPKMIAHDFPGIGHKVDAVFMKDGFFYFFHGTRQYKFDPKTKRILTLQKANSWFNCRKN
Description: as §1, §2, §3, §4

[1] = biological target: TNF-α converting enzyme (TACE) (Homo sapiens, UniProt P78536); assay: TACE inhibition, fluorescent peptidyl substrate test procedure; conditions: in vitro enzyme inhibition
TNF-α converting enzyme (TACE), sequence (P78536 215-824, species assumed): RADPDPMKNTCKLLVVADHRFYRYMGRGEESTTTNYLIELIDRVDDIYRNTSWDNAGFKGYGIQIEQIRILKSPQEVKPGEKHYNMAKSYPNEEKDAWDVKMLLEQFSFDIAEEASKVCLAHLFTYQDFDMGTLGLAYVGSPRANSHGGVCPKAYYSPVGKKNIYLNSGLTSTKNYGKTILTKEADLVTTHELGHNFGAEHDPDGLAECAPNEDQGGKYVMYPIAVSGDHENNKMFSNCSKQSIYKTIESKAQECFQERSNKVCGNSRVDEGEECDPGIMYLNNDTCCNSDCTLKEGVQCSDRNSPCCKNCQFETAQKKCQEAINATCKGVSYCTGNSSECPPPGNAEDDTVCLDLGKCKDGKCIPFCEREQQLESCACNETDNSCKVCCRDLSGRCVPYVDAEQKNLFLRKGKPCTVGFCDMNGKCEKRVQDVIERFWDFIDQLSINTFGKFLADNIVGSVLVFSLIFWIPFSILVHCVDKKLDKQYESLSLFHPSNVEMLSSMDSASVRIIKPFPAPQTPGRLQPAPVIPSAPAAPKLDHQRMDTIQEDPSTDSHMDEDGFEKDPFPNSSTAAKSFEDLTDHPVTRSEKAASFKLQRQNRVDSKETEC
Description: Test Procedure for Measuring TACE Inhibition
Using 96-well black microtiter plates, each well receives a solution composed of 10 μL TACE (final concentration 1 μg/mL), 70 μL Tris buffer, pH 7.4 containing 10% glycerol (final concentration 10 mM), and 10 μL of test compound solution in DMSO (final concentration 1 μM, DMSO concentration <1%) and incubated for 10 minutes at room temperature. The reaction is initiated by addition of a fluorescent peptidyl substrate (final concentration 100 μM) to each well and then shaking on a shaker for 5 sec.
The reaction is read (excitation 340 nm, emission 420 nm) for 10 min. and the increase in fluorescence over time is plotted as a linear line. The slope of the line is calculated and represents the reaction rate.
The mean (x±sem) of the control rate is calculated and compared for statistical significance (p<0.05) with drug-treated rates using Dunnett's multiple comparison test.

MMP-9, sequence (P14780 94-707): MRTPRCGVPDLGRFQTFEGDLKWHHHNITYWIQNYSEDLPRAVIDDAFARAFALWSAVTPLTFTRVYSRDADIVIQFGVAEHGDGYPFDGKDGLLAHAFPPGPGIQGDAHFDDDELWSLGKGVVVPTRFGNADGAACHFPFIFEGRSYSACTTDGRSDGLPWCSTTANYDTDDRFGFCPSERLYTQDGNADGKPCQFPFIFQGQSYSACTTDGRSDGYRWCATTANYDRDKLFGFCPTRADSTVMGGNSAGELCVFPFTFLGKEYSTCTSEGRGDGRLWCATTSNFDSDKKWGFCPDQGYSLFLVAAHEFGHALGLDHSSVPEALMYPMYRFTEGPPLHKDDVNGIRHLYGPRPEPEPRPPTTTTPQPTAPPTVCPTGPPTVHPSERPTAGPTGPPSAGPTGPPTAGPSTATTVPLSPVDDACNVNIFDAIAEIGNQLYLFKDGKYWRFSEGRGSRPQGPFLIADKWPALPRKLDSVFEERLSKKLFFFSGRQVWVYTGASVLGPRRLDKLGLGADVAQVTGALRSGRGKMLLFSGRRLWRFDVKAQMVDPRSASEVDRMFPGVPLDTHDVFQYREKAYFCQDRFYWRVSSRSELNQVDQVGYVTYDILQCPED

IC50 (MMP-9) [nM]	IC50 (MMP-13) [nM]	IC50 (MMP-1) [nM]	IC50 [1] [nM]	inhibition at 1 µM (MMP-1; 1 μM, read-out: MMP-1 % (inhibition) at single concentration) [%]	Compound
36	21	2670	51	–	C=C=CCOc1ccc(S(=O)(=O)NC(C(=O)NO)C(C)C)cc1 (centres unmarked) [Example 13, 2-({[4-(2,3-Butadienyloxy)phenyl]sulfonyl}amino)-N-hydroxy-3-methylbutanamide]
–	3	–	36	–	C=C=CCOc1ccc(S(=O)(=O)N(C)C(C(=O)NO)C(C)C)cc1 (centres unmarked) [Example 16, 2-[{[4-(2,3-Butadienyloxy)phenyl]sulfonyl}(methyl)amino]-N-hydroxy-3-methylbutanamide]
21	25	8810	62	–	CC=C=CCOc1ccc(S(=O)(=O)NC(C(=O)NO)C(C)C)cc1 (centres unmarked) [Example 19, N-Hydroxy-3-methyl-2-({[4-(2,3-pentadienyloxy)phenyl]sulfonyl}amino)butanamide]
4	6	877	48	–	CC=C=CCOc1ccc(S(=O)(=O)N(C)C(C(=O)NO)C(C)C)cc1 (centres unmarked) [Example 22, N-Hydroxy-3-methyl-2-(methyl{[4-(2,3-pentadienyloxy)phenyl]sulfonyl}amino)butanamide]
–	4	50	116	–	C=C=CCOc1ccc(S(=O)(=O)N2CCSC(C)(C)[C@@H]2C(=O)NO)cc1 [Example 26, (3S)-4-{[4-(2,3-Butadienyloxy)phenyl]sulfonyl}-N-hydroxy-2,2-dimethyl-3-thiomorpholinecarboxamide]
–	4	675	–	–	C=C=CCOc1ccc(S(=O)(=O)N2Cc3ccccc3N(C(=O)c3ccccc3)CC2C(=O)NO)cc1 (centres unmarked) [Example 46, 1-Benzoyl-4-(4-buta-2,3-dienyloxy-benzenesulfonyl)-2,3,4,5-tetrahydro-1H-benzo[e][1,4]diazepine-3-carboxylic acid hydroxyamide]
–	5	–	1400	32	CC=C=CCOc1ccc(S(=O)(=O)N2Cc3ccccc3N(C(=O)c3ccccc3)CC2C(=O)NO)cc1 (centres unmarked) [Example 47, 1-Benzoyl-N-hydroxy-4-{[4-(2,3-pentadienyloxy)phenyl]sulfonyl}-2,3,4,5-tetrahydro-1H-1,4-benzodiazepine-3-carboxamide]

Compound	IC50 (MMP-9) [nM]	IC50 (MMP-13) [nM]	IC50 (MMP-1) [nM]	IC50 [1] [nM]	inhibition at 1 µM (MMP-1; 1 μM, read-out: MMP-1 % (inhibition) at single concentration) [%]
C=C=CCOc1ccc(S(=O)(=O)N2Cc3ccccc3N(C(C)=O)CC2C(=O)NO)cc1 (centres unmarked) [Example 45, 1-Acetyl-4-{[4-(2,3-butadienyloxy)phenyl]sulfonyl}-N-hydroxy-2,3,4,5-tetrahydro-1H-1,4-benzodiazepine-3-carboxamide]	9	7	2350	71	–
